Test results published in US8603498B2, “Lipo-phosphated or lipo-sulphated compound, compositions comprising it and topical uses thereof” (Sederma, S.A.S., priority 2010, dated 2013).

How the values were obtained:
melanocytes = test: Lipid production in melanocytes; format: cell-based
Text: This lipid production by the Lipo-Phosphomalate was not observed in fibroblasts or melanocytes. It is therefore a specific effect related to the metabolism of keratinocyte during its differentiation.

hydroxylated ceramides = test: Hydroxylated ceramides in keratinocytes by HPTLC; format: cell-based, human; settings: 5 ppm
Description: The same protocol was followed as before but a larger quantity of keratinocyes was used on this occasion because of the limits of detection of the apparatus. After 7 days, the layers were rinsed, lipids extracted using solvents before being deposited on a thin-layer chromatography plate using an automated device. After migration and detection, the bands were analysed and quantified based on a range of standard lipids deposited on the same plate.
At the same time as the HPTLC cholesterol assay, an assay of hydroxylated and non-hydroxylated ceramides was carried out on the extracts.

G3PDH = G3PDH activity in differentiating 3T3-L1 cells; format: cell-based
Description: 3T3-L1 cells were cultivated until sub-confluence, then induced to differentiate with the appropriate mixture with or without the Lipo-Phosphomalate at different concentrations. After 3 days of incubation, the differenciation mixture is replaced by a new maintaining culture medium, in the presence or not of the Lipo-Phosphomalate. After 3 days of incubation, the cell layers are collected and the activity of G3PDH is assayed.

involucrin gene = test: DNA-Array study, involucrin gene; format: cell-based; settings: in the presence of solubilised Lipo-Phosphomalate
Text: In addition, a DNA-Array study has shown that the transglutaminase-1 and involucrin genes are over-expressed in the network with other genes essential for the formation of the corinfied layer in the presence of solubilised Lipo-Phosphomalate.

collagen I = test: Synthesis of collagen I on human dermal fibroblast (immunolabeling); format: cell-based; settings: for collagen I AFU mean: 7 days
Description: Normal human fibroblasts (NHF) are cultivated in MW24 plates for 24 hours. The cells are contacted or not with the Lipo-Phosphomalate of the invention at various concentrations for 7 days. The synthesis of collagen I produced by the cells is then quantified by immunolabeling fixed on the layers using a specific antibody. Quantification by image analysis is then performed on the photos. TGF-β1 is used as positive control.
An analysis of variance was performed on the data (cases treated compared with untreated cases). In the case of identity of variances, a Student't test was then performed on the means.

CD44 = CD44 synthesis by human keratinocytes (immunological labeling); format: cell-based; settings: 5 ppm, 22 days
Text: Human keratinocytes were cultivitated in 35 mm box to confluence. Cells are contacted or not with the Lipo-Phosphomalate for 22 days. At the end of this contact period, the cells are fixed and an immunological labeling of the CD44 is made using specific antibodies.

transglutaminase-1 m-RNA = test: Transglutaminase-1 m-RNA in keratinocytes by qRT-PCR; format: cell-based, human; settings: 5 ppm, 14 days; for m-RNA % change: after normalisation by the housekeeping gene
Text: ByqRT-PCR: Human keratinocytes were placed in contact/not placed in contact with solubilised for 14 days. At the end of the contact period, the cultures were stopped and m-RNA allowing production of transglutaminase-1 protein was quantified using the RT-PCR method.
After extraction and purification of the m-RNA, copies are made in DNA using a Reverse Transcriptase (RT). The number of copies of a given m-RNA (here that of TGase) is thereafter amplified using two oligonucleotides (called primers) specific to the gene of TGase and to an enzyme (PCR=polymerase chain reaction) during a series of amplification cycles, each of which doubling the number of copies present. The result of this amplication is measured by fluorescence. Ct is the number of cycles required to achieve a given fluorescence level (arbitrarily set). It is clear, that the more m-RNA of a given gene present in the starting culture there are, the fewer cycles (Ct) are needed to reach the set level of fluorescence.

3T3-L1 cells = test: Lipid incorporation by 3T3-L1 cells (oil red, image analysis); format: cell-based
Description: 3T3-L1 cells are sowed and cultivated for 4 days (multiplication). Follow a differentiation phase (incubation with a classic differentiation mixture) and then a maturation phase (with a maturation mixture) in the presence or not of the Lipo-Phosphomalate at different concentrations. At the end of this period, cells were washed, fixed and coloured with oil red. The cell layers were photographed digitally and the red color is quantified by image analysis. The surface percentages of red oil, reported in the table below, were established compared to untreated control cells, and the test validated by comparison to pioglytazone (10 μM), positive control for stimulation of differentiation.

Compound: CCCCCCCCCCCCCCOC(=O)CC(OP(=O)(O)O)C(=O)O (stereo not drawn) [Lipo-Phosphomalate, 2-phosphate-succinic-acid-4-tetradecyle ester]
- lipid production (cholesterol, ceramides) (melanocytes): not observed
- Hydroxylated Ceramides (pg/10^5 cell.) (hydroxylated ceramides; 7 days): 10.50 ± 1.12 pg/10^5 cell.
- Hydroxylated Ceramides Change (number of times) (hydroxylated ceramides; vs control): ×7.5
- G3PDH activity % Change/control (G3PDH; 10 ppm): +158%; p < 0.01
- G3PDH activity % Change/control (G3PDH; 15 ppm): +225%; p < 0.01
- involucrin gene expression (DNA-Array) (involucrin gene): over-expressed
- collagen I AFU mean (collagen I; Eq 1%): 8.1 +/− 5.6 AFU
- collagen I % Variation/control (collagen I; Eq 1%, p = 0.09): +60%;
- collagen I % Variation/control (collagen I; Eq 3%): +315%;
- collagen I AFU mean (collagen I; Eq 3%): 21.1 +/− 13.8 AFU
- collagen I % Variation/control (collagen I; Eq 5%): +496%;
- collagen I AFU mean (collagen I; Eq 5%): 30.4 +/− 14.6 AFU
- CD44 % Variation/control (CD44): +587%; p <
- CD44 UFA/10^6 cells (CD44): 27.20 +/− 16.5 UFA/10^6 cells
- CD44 variation/control (times) (CD44): 0.01 => ×7
- m-RNA % change (transglutaminase-1 m-RNA; listed as Solubilised Lipo-Phosphomalate): +101%; p < 0.01
- m-RNA % change (transglutaminase-1 m-RNA; listed as solubilised Lipo-Phosphomalate): ~+100%
- m-RNA Number of cycles: Ct (transglutaminase-1 m-RNA; control 24.60 ± 0.42): 23.25 ± 0.46
- surface of red oil % Change/control (3T3-L1 cells; 10 ppm): +171%; p < 0.01
- surface of red oil % Change/control (3T3-L1 cells; 15 ppm): +294%; p < 0.01
- surface of red oil % Change/control (3T3-L1 cells; 20 ppm): +481%; p < 0.01
